Test results reported in PMC5515971, “Utility of spherical human liver microtissues for prediction of clinical drug-induced liver injury” (Archives of Toxicology, 2017).
pIC50: −log10 of the molar value. Read-outs that look alike come from different tables or passages of the source.

What was measured:
[1] = ref Chen et al 2016 / Chen et al 2011; cited from earlier work
[2] = cited from earlier work
[3] = tested on: primary human hepatocytes (PHH); assay: Cytotoxicity (cellular ATP, CellTiter-Glo) in 2D plated primary human hepatocytes, 48 h treatment; format: cell-based; settings: for pIC50: read-out: Geomean IC50;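 on all read-outs here: 384-well plates, luminescence read-out, normalized to vehicle wells with 1% DMSO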
[4] = tested on: 3D human liver microtissues (hLiMT); assay: Cytotoxicity (cellular ATP, CellTiter-Glo 2.0) in 3D human liver microtissues, 14 day repeat-dose treatment; settings: for IC50: Homo sapiens, Hepatocyte, 336 h, read-out: Geomean IC50 [µM]
[5] = cited from earlier work; for DILI category: clinical, from literature and product labels, ref Garside et al. 2014
[6] = human Cmax total, used for IC50/Cmax
[7] = human total plasma Cmax, ref literature values
[8] = Hepatocyte, 2D primary human hepatocytes (lot IZT), 48 h treatment, total cellular ATP content
[9] = Table 1, ref Garside et al. (2014)
[10] = clinical DILI severity category, 1-5

Row | Structure (SMILES) | FDA DILI Classification DILI severity score [1] | LTKB DILI classification [1] | Cmax [2, 6] | Cmax [2, 7] | pIC50 [3, 8] | IC50 [4] | DILI severity category [5, 9] | DILI severity category [5, 10] | DILI category [5] | pIC50 ([3]; Homo sapiens, Hepatocyte, 48 h) | pIC50 ([3]; 2D primary human hepatocytes (lot IZT), 48 h treatment, total cellular ATP content) | pIC50 ([4]; read-out: Geomean IC50, decrease in total cellular ATP content, hLiMT treated for 14 days, hepatocyte lot IZT (except Dexamethasone) co-cultured with NPCs, n=1 or geometric mean) | classification at 50× MOS threshold ([3]; PHH 48 h)
1 | CN(C)CCC=C1c2ccccc2CCc2ccccc21 [Amitriptyline] | 5 | less DILI concern | 721 nM | 720 nM | 4.38 | 18.8 µM | 3: Low clinical DILI concern (N = 23) | 3. Low Clinical DILI Concern | 3. Low Clinical DILI Concern | – | – | – | –
2 | O=C1CN(/N=C/c2ccc(-c3ccc([N+](=O)[O-])cc3)o2)C(O)=N1 [Dantrolene] | 8 | most DILI concern | 3950 nM | 3950 nM | < 4.00 | > 100 µM | 1: Severe clinical DILI (N = 23) | 1. Severe Clinical DILI | 1. Severe Clinical DILI | – | – | – | –
3 | Cc1onc(-c2c(F)cccc2Cl)c1C(=O)N[C@@H]1C(=O)N2[C@@H]1SC(C)(C)[C@@H]2C(=O)O [Flucloxacillin] | – | – | 66100 nM | 66100 nM | 2.33 | 12200 µM | 2: High clinical DILI concern (N = 23) | 2. High Clinical DILI Concern | 2. High Clinical DILI Concern | – | – | – | –
4 | NC(=O)OCC(COC(N)=O)c1ccccc1 [Felbamate] | 7 | most DILI concern | 399000 nM | 399000 nM | < 4.00 | > 100 µM | 1: Severe clinical DILI (N = 23) | 1. Severe Clinical DILI | 1. Severe Clinical DILI | – | – | – | –
5 | CS(=O)(=O)CCNCc1ccc(-c2ccc3ncnc(Nc4ccc(OCc5cccc(F)c5)c(Cl)c4)c3c2)o1 [Lapatinib] | 8 | most DILI concern | 19000 nM | 19000 nM | 4.48 | ~27.3 µM | 1: Severe clinical DILI (N = 23) | 1. Severe Clinical DILI | 1. Severe Clinical DILI | – | – | – | –
6 | CO[C@@]12[C@H](COC(N)=O)C3=C(C(=O)C(C)=C(N)C3=O)N1C[C@@H]1N[C@@H]12 [Mitomycin C] | – | – | 7100 nM | 7100 nM | – | < 0.8 µM | – | – | – | 4.83 | – | – | –
7 | CC(C(=O)O)c1ccc2oc(-c3ccc(Cl)cc3)nc2c1 (stereo not drawn) [Benoxaprofen] | 8 | most DILI concern | 149000 nM | 149000 nM | < 4.00 | > 100 µM | 1: Severe clinical DILI (N = 23) | 1. Severe Clinical DILI | 1. Severe Clinical DILI | – | – | – | –
8 | Cc1ccc(-c2cc(C(F)(F)F)nn2-c2ccc(S(N)(=O)=O)cc2)cc1 [Celocoxib] | – | – | 2540 nM | 2540 nM | – | – | 2: High clinical DILI concern (N = 23) | 2. High Clinical DILI Concern | 2. High Clinical DILI Concern | – | 3.81 | 4.58 | –
9 | CCc1ccc(CCOc2ccc(CC3SC(=O)NC3=O)cc2)nc1 (stereo not drawn) [Pioglizatone, Pioglitazone] | 3 | less DILI concern | 2950 nM | 2950 nM | < 3.90 | > 15.6 µM | 3: Low clinical DILI concern (N = 23) | 3. Low Clinical DILI Concern | 3. Low Clinical DILI Concern | – | – | – | –
10 | CN1CCN(C2=Nc3cc(Cl)ccc3Nc3ccccc32)CC1 [Clozapine] | – | – | 2400 nM | 2450 nM | – | – | – | – | – | – | – | – | –
11 | OC(CCN1CCCC1)(c1ccccc1)C1CCCCC1 (stereo not drawn) [Procyclidine] | – | – | 2190 nM | 2190 nM | 4.01 | 117 µM | – | – | – | – | – | – | false positive
12 | CNCCC(Oc1ccc(C(F)(F)F)cc1)c1ccccc1 (stereo not drawn) [Fluoxetine] | – | – | 50 nM | 50 nM | – | – | – | – | – | – | – | – | –
13 | C#C[C@]1(O)CC[C@H]2[C@@H]3CCC4=Cc5oncc5C[C@]4(C)[C@H]3CC[C@@]21C [Danazol] | – | – | – | 207000 nM | 3.97 | > 100 µM | – | – | – | – | – | – | –
14 | CN(CCOc1ccc(CC2SC(=O)NC2=O)cc1)c1ccccn1 (stereo not drawn) [Rosiglitazone] | 3 | less DILI concern | 1000 nM | 1040 nM | < 4.00 | – | 2: High clinical DILI concern (N = 23) | 2. High Clinical DILI Concern | 2. High Clinical DILI Concern | – | – | – | –
15 | O=C(O)COc1ccc(C(=O)c2cccs2)c(Cl)c1Cl [Tienilic Acid] | – | – | 82700 nM | 82700 nM | < 4.00 | 567 µM | 1: Severe clinical DILI (N = 23) | 1. Severe Clinical DILI | 1. Severe Clinical DILI | – | – | – | –
16 | Nc1cc(N2CCCCC2)nc(N)[n+]1[O-] [Minoxidil] | – | – | 1200 nM | 1190 nM | < 4.00 | > 100 µM | – | – | – | – | – | – | –
17 | CCN(CC)Cc1cc(Nc2ccnc3cc(Cl)ccc23)ccc1O [Amodiaquine] | – | – | 1910 nM | 1910 nM | 4.73 | < 7.8 µM | 2: High clinical DILI concern (N = 23) | 2. High Clinical DILI Concern | 2. High Clinical DILI Concern | – | – | – | –
18 | N[C@@H]1CON=C1O [Cycloserine] | – | – | 333000 nM | 333000 nM | < 5.00 | 7460 µM | – | – | – | – | – | – | –
